Measurements: ChEMBL document CHEMBL4406823 (Eur J Med Chem, 2019)
pIC50: −log10 of the molar value. Active and inactive are the calls of the source. The calls are words filed in the database; no cut-off is given here.

Legend:
[1] = Cytotoxicity against human quiescent PBL assessed as reduction in cell viability incubated for 72 hrs by MTT assay; type: cell-based
[2] = test system: CCRF-CEM; test: Antiproliferative activity against human CEM cells assessed as inhibition of cell growth incubated for 72 hrs by MTT assay; type: functional
[3] = Cytotoxicity against PHA-stimulated human PBL assessed as reduction in cell viability incubated for 72 hrs by MTT assay; type: cell-based
[4] = target: T1, Tubulin (Bos taurus) (UniProt Q6B856+Q862L2+Q862F3); test: Displacement of [3H]-colchicine from bovine brain tubulin at 0.5 uM incubated for 1 hr by relative to control
[5] = test system: HeLa; test: cells; details: Homo sapiens, 72 h
Description: Antiproliferative activity against human HeLa cells assessed as inhibition of cell proliferation incubated for 72 hrs by MTT assay

[6] = Cytotoxicity against human astrocytes assessed as reduction in cell viability incubated for 72 hrs by MTT assay; type: cell-based, Astrocyte
[7] = test system: MDA-MB-231; test: Induction of cell cycle arrest in human MDA-MB-231 cells assessed as increase in accumulation of cells at G2/M phase at 10 nM incubated for 24 hrs by PI staining based flow cytometric analysis relative to control; type: functional
[8] = Toxicity in C57BL/6 mouse allografted with mouse E0771 cells assessed as change in body weight at 15 mg/kg, ip administered every other day; type: organism-based; details: in vivo
[9] = test system: MDA-MB-231; test: Induction of cell cycle arrest in human MDA-MB-231 cells assessed as reduction in cdc2 dephosphorylation level at 50 to 100 nM incubated for 24 to 48 hrs by western blot analysis
[10] = test system: HT-29; test: cells; details: Homo sapiens, HT-29, 72 h
Description: Antiproliferative activity against human HT-29 cells assessed as inhibition of cell proliferation incubated for 72 hrs by MTT assay

[11] = test system: E0771; test: Antitumour activity against mouse E0771 cells allografted in C57BL/6 mouse assessed as reduction in tumor mass at 5.0 to 15 mg/kg, ip administrated for every other day by caliper method; type: functional, organism-based
[12] = test system: MDA-MB-231; test: Induction of apoptosis in human MDA-MB-231 cells assessed as activation of PARP cleavage at 50 to 100 nM incubated for 48 hrs by Western blot analysis; type: functional, cell-based
[13] = test system: MDA-MB-231; test: Inhibition of cell migration in human MDA-MB-231 cells at 5 nM incubated for 24 to 48 hrs by wound healing assay; type: functional, cell-based
[14] = test system: MDA-MB-231; test: Antiproliferative activity against human MDA-MB-231 cells assessed as inhibition of cell proliferation incubated for 72 hrs by MTT assay; type: functional, cell-based; details: MDA-MB-231, 72 h
[15] = test system: E0771; test: Antitumour activity against mouse E0771 cells allografted in ip dosed C57BL/6 mouse assessed as reduction in tumor burden administrated every other day by caliper method; type: functional, organism-based
[16] = test system: MDA-MB-231; test: Induction of cell cycle arrest in human MDA-MB-231 cells assessed as reduction in accumulation of cells at G1 phase at 10 to 100 nM incubated for 24 hrs by PI staining based flow cytometric analysis; type: functional
[17] = test system: MDA-MB-231; test: Induction of apoptosis in human MDA-MB-231 cells assessed as reduction in Mcl1 protein expression at 50 nM incubated for 24 hrs by Western blot analysis; type: functional, cell-based
[18] = test system: SEM cells; test: Antiproliferative activity against human SEM cells assessed as inhibition of cell proliferation incubated for 72 hrs by MTT assay; type: functional, cell-based
[19] = test system: MDA-MB-231; test: Induction of ROS generation in human MDA-MB-231 cells at 50 to 100 nM incubated for 24 to 48 hrs by H2-DCFDA staining based flow cytometric method; type: functional, cell-based
[20] = target: T1, Tubulin (Bos taurus); test: Displacement of [3H]-colchicine from bovine brain tubulin at 5 uM incubated for 1 hr by relative to control
[21] = test system: MDA-MB-231; test: Induction of cell cycle arrest in human MDA-MB-231 cells assessed as reduction in cdc25c protein expression at 50 nM incubated for 24 to 48 hrs by western blot analysis; type: functional, cell-based
[22] = test system: MDA-MB-231; test: Induction of cell cycle arrest in human MDA-MB-231 cells assessed as reduction in accumulation of cells at S phase at 10 to 100 nM incubated for 24 hrs by PI staining based flow cytometric analysis; type: functional
[23] = test system: HL-60; test: Antiproliferative activity against human HL60 cells assessed as inhibition of cell proliferation incubated for 72 hrs by MTT assay; type: functional, cell-based; details: HL-60, 72 h
[24] = test system: E0771; test: Antitumour activity against mouse E0771 cells allografted in C57BL/6 mouse assessed as reduction in tumor burden at 5.0 mg/kg, ip administrated every other day by caliper method; type: functional, organism-based
[25] = test system: MCF7; test: cells; details: Homo sapiens, MCF7, 72 h
Description: Antiproliferative activity against human MCF7 cells assessed as inhibition of cell proliferation incubated for 72 hrs by MTT assay

[26] = test system: MDA-MB-231; test: Induction of cell cycle arrest in human MDA-MB-231 cells assessed as increase in p21 protein expression level at 50 to 100 nM incubated for 24 to 48 hrs by western blot analysis; type: functional, cell-based
[27] = test system: MDA-MB-231; test: Induction of cell cycle arrest in human MDA-MB-231 cells assessed as effect on cyclin B protein expression at 50 to 100 nM incubated for 24 to 48 hrs by western blot analysis; type: functional, cell-based
[28] = test system: MDA-MB-231; test: Induction of mitochondrial membrane depolarization in human MDA-MB-231 cells at 50 to 100 nM incubated for 24 to 48 hrs by JC1 staining based flow cytometric method; type: functional, cell-based
[29] = Antiproliferative activity against human CEM/VBL100 cells overexpressing P-gp assessed as inhibition of cell growth incubated for 72 hrs by MTT assay; type: functional; details: CEM/VBL100, 72 h
[30] = test system: MDA-MB-231; test: Induction of apoptosis in human MDA-MB-231 cells assessed as reduction in XIAP protein expression at 50 to 100 nM incubated for 24 to 48 hrs by Western blot analysis; type: functional, cell-based
[31] = target: Tubulin (Bos taurus, UniProt Q6B856+Q862L2+Q862F3); test: Inhibition of bovine brain tubulin assembly using GTP as substrate incubated for 20 mins by spectrophotometric method
[32] = test system: MDA-MB-231; test: Induction of apoptosis in human MDA-MB-231 cells at 50 nM incubated for 24 to 48 hrs by annexin V-FITC/propidium iodide staining-based flow cytometry analysis; type: functional, cell-based

## CCOc1ccc(-c2n[nH]cc2-c2cc(OC)c(OC)c(OC)c2)cc1
[1]
  GI50 at 72 h: > 10000 nM
[2]
  GI50: 0.35 nM
[3]
  GI50 at 72 h: > 10000 nM
[4]
  inhibition: 90%
[5]
  pIC50: 10.15
[6]
  GI50 at 72 h: > 10000 nM
[7]
  Activity: 60%
[8]
  Activity: Non-Toxic
[9]
  Activity: Active
[10]
  pIC50: 10.22
[11]
  inhibition: Active
[12]
  Activity: Active
[13]
  inhibition: Active
[14]
  pIC50: 9.15
[15]
  inhibition: Dose-dependent effect
[16]
  Activity: Active
[17]
  Activity: Active
[18]
  pIC50: 10.22
[19]
  Activity: Active
[20]
  inhibition: 96%
[21]
  Activity: Active
[22]
  Activity: Active
[23]
  pIC50: 9.60
[24]
  inhibition: Active
[25]
  pIC50: 9.68
[26]
  Activity: Active
[27]
  Activity: inactive
[28]
  Activity: Active
[29]
  GI50: 0.52 nM
[30]
  Activity: Active
[31]
  IC50: 350 nM
[32]
  Activity: Active
